Results published in patent publication US6916797B2, “α-arylethylpiperazine derivatives as neurokinin antagonists” (UCB, S.A., priority 2000, dated 2005).
pIC50: −log10 of the molar value.

Tests used:
NK1 receptors [1] = target: T1, NK1 receptors (Homo sapiens, UniProt P25103); details: cited from earlier work
[2] = system: verapamil-sensitive L-type Ca2+ binding site; details: cited from earlier work
[3] = in vivo; cited from earlier work
[4] = system: verapamil binding site of the L-type calcium channel; experiment: Inhibition of [3H]D888 binding to the verapamil binding site of the L-type calcium channel (rat cerebral cortex membranes); details: 10 μmol/l of test substance
[5] = system: isolated rat aorta contracted by 100 mM KCl; experiment: Effect of compound on isolated rat aorta contracted by 100 mM KCl; details: 10^−5 M; contraction by 100 mM KCl
Method: Rat thoracic aorta depolarized by 100 mM KCl develops a contraction induced by an influx of Ca^2+ into the smooth muscle cell. An inhibition of this contraction could predict a Ca^2+ antagonist activity.
The method was adapted from Polster P. et al., J. Pharmacol. Exp. Ther. (1990), 255, 593: rings of thoracic aorta were prepared from male Wistar rats (250-400 g) and mounted under an optimal resting tension of 2 g in 10 ml organ baths containing modified Krebs' solution (NaCl 112 mM, NaHCO3 25 mM, KCl 5 mM, MgSO4 1.2 mM, CaCl2 2.5 mM, KH2PO4 1 mM and glucose 11.5 mM, pH 7.4). The bathing solution was maintained at a temperature of 37° C. and gassed with 95% O2 and 5% CO2. Isometric contractions were measured with a force transducer connected to an amplifier. A computer system was used to control data acquisition and fluid circulation through electrovalves. Drugs were manually injected into the bath.
Each ring was allowed to equilibrate for 60 min in the modified Krebs' solution. […] After obtaining two reproducible control contractions, a 3rd contraction was induced and the test compound was added to the bathing medium for 2 hours. Only preparation in which the contractions were matched were used. Each tissue received only one concentration of the test compound. Appropriate control experiments were conducted in order to test the effect of the solvant.
To normalize data, the change in tension due to the drug was compared to the change of tension due to the solvant and expressed as percentage of the induced relaxation of the initial contraction. Raw data were processed by a computer system and the pD′2 value was calculated following the method of Van Rossum J. M. et al., Arch. Int. Pharmacodyn. Ther. (1963), 143, 299.

NK1 receptors [6] = target: T1, NK1 receptors; experiment: Binding of [4,5-3H-Leu10] substance P to human recombinant NK1 receptors expressed in CHO cell membranes; set-up: host or cells: CHO cells; details: pIC50 = -log IC50, concentration inhibiting by 50% the specific binding of [4,5-3H] substance P; tested as the free base/salt given in c1
[7] = after oral administration; cited from earlier work

T1 sequence (P25103 whole entry): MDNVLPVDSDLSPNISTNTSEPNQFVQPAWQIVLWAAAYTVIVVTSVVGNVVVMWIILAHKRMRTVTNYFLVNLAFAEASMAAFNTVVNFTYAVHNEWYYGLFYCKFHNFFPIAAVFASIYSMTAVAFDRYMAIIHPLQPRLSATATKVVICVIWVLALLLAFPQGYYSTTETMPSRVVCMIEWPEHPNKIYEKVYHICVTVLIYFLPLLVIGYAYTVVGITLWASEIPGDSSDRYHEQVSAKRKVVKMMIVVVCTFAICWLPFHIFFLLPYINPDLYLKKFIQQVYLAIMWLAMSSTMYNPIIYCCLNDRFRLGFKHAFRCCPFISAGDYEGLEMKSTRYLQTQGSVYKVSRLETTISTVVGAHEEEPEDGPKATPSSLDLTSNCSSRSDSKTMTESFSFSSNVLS

COc1ccccc1CN[C@H]1C2CCN(CC2)[C@H]1C(c1ccccc1)c1ccccc1 [CP-96,345]
selectivity for NK1 receptors with respect to NK2 and NK3 receptors (NK1 receptors [1]): good selectivity | affinity for / interaction with the verapamil-sensitive L-type Ca2+ binding site [2]: significant affinity

COc1ccccc1CN[C@H]1CCCN[C@H]1c1ccccc1 [CP-99,994]
selectivity for NK1 receptors with respect to NK2 and NK3 receptors (NK1 receptors [1]): good NK1 selectivity | affinity for / interaction with the verapamil-sensitive L-type Ca2+ binding site [2]: lower interaction | outcome of first phase II clinical trials for asthma [3]: unsuccessful

O=C(O)C1CCC(N2CCN(C(COCc3cc(C(F)(F)F)cc(C(F)(F)F)c3)c3ccccc3)CC2)CC1 (stereo not drawn) [Compound 312, cis- or trans-4-{4-[2-(3,5-Bis-trifluoromethyl-benzyloxy)-1-phenyl-ethyl]-piperazin-1-yl}-cyclohexanecarboxylic acid]
% inhibition of [3H]D888 binding to the verapamil binding site of the L-type calcium channel [4]: 0 (0: inhibition < 20%) | Result: effect of compound on isolated rat aorta contracted by 100 mM KCl [5]: inactive à 10^−5 M | pIC50 (NK1 receptors [6]): 7.60

COc1ccccc1CC(=N)N1C[C@@H]2C(=O)CCC(c3ccccc3)(c3ccccc3)[C@@H]2C1 [RP-67,580]
NK1 affinity (NK1 receptors [1]): some NK1 affinity

COc1ccccc1[C@H](C)C(=O)N1C[C@@H]2[C@H](C1)C(c1ccccc1)(c1ccccc1)CC[C@@]2(O)c1ccccc1OC [RP-100,893]
activity in clinical trials for the treatment of migraine [7]: no better than placebo activity
